Assay results from the kinase profiling compilation of Christmann-Franck et al. (2016).

Tests used:
Experiment in all cases: KINOMEscan competition binding
Conditions in all cases: compound 10.0 µM
CDK19 (human) = CDK19 (human) (UniProt Q9BWU1)
CaMK1 (human) = CaMK1 (human) (UniProt Q14012)
PIK3C2B (human) = PIK3C2B (human) (UniProt O00750)
LTK (human) = LTK (human) (UniProt P29376)
PLK3 (human) = PLK3 (human) (UniProt Q9H4B4)
SYK (human) = SYK (human) (UniProt P43405)
RIPK1 (human) = RIPK1 (human) (UniProt Q13546)
HIPK1 (human) = HIPK1 (human) (UniProt Q86Z02)
CDK5 (human) = CDK5 (human) (UniProt Q00535)
TBK1 (human) = TBK1 (human) (UniProt Q9UHD2)
CLK4 (human) = CLK4 (human) (UniProt Q9HAZ1)
CRK2 (P.falciparum) = CRK2 (P.falciparum) (UniProt P61075)
CDK13 (human) = CDK13 (human) (UniProt Q14004)
PAK2 (human) = PAK2 (human) (UniProt Q13177)
Chain of PAK2 (human) (Q13177 whole entry, looked up): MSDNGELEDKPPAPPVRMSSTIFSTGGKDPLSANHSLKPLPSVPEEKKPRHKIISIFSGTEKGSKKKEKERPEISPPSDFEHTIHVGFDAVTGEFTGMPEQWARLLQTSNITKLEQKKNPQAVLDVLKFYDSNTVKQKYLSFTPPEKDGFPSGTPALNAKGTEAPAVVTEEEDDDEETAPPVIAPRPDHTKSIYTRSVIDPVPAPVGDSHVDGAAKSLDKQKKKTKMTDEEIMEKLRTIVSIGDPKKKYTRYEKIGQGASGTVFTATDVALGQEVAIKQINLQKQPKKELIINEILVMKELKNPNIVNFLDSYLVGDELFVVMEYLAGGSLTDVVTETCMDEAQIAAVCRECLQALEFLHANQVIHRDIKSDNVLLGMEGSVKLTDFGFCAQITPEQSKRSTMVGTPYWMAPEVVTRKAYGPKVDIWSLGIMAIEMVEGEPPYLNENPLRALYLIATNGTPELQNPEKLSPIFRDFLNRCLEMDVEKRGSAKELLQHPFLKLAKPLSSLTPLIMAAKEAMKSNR

STK24 (human) = STK24 (human) (UniProt Q9Y6E0)
HIPK2 (human) = HIPK2 (human) (UniProt Q9H2X6)
PKMYT1 (human) = PKMYT1 (human) (UniProt Q99640)
FLT4 (human) = FLT4 (human) (UniProt P35916)
RPS6KA1 KD2 (human) = RPS6KA1 KD2 (human) (UniProt Q15418)
TGFBR2 (human) = TGFBR2 (human) (UniProt P37173)
GRK4 (human) = GRK4 (human) (UniProt P32298)
CHEK1 (human) = CHEK1 (human) (UniProt O14757)
MUSK (human) = MUSK (human) (UniProt O15146)
AURKA (human) = AURKA (human) (UniProt O14965)
CDK17 (human) = CDK17 (human) (UniProt Q00537)
HCK (human) = HCK (human) (UniProt P08631)
SIK3 (human) = SIK3 (human) (UniProt Q9Y2K2)
Chain of SIK3 (human) (Q9Y2K2 whole entry, looked up): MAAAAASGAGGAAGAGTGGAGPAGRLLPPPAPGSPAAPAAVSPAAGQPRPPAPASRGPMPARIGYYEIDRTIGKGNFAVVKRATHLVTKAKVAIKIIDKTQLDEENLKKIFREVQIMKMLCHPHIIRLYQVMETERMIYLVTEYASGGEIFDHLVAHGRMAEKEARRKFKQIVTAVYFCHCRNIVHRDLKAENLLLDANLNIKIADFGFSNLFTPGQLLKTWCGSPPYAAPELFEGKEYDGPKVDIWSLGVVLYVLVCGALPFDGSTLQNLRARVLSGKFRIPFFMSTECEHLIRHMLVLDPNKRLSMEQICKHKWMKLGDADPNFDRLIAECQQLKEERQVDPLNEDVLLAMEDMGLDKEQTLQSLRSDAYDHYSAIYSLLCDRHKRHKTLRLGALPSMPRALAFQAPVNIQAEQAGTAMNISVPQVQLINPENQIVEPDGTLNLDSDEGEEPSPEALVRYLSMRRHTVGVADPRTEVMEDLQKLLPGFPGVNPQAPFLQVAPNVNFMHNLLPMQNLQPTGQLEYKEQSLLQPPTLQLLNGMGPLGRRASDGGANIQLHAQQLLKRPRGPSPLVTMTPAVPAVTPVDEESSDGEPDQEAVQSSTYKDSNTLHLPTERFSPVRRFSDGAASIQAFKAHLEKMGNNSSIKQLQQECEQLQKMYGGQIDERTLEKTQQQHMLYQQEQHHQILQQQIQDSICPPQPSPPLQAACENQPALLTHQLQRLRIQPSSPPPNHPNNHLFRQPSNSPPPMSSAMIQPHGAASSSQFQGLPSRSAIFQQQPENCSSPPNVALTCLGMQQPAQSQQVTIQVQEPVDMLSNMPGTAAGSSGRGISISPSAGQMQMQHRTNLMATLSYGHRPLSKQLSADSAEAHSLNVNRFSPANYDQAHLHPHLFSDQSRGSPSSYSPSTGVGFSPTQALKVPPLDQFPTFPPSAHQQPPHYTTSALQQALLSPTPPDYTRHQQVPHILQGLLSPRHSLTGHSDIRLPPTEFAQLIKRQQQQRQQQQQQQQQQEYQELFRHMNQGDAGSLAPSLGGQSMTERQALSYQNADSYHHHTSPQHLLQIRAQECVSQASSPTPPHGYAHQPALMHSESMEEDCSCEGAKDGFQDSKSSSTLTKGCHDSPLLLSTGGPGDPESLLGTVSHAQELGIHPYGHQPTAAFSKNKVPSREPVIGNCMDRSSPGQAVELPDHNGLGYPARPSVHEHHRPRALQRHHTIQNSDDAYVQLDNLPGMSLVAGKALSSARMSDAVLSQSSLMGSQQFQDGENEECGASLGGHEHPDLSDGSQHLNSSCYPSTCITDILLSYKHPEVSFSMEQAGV

EPHA1 (human) = EPHA1 (human) (UniProt P21709)
FLT1 (human) = FLT1 (human) (UniProt P17948)
MYLK (human) = MYLK (human) (UniProt Q15746)
[1] = test system: KIT (human), P10721 [A829P]
MAP3K11 (human) = MAP3K11 (human) (UniProt Q16584)
CDKL3 (human) = CDKL3 (human) (UniProt Q8IVW4)
MAP3K15 (human) = MAP3K15 (human) (UniProt Q6ZN16)
SRPK2 (human) = SRPK2 (human) (UniProt P78362)
Chain of SRPK2 (human) (P78362 whole entry, looked up): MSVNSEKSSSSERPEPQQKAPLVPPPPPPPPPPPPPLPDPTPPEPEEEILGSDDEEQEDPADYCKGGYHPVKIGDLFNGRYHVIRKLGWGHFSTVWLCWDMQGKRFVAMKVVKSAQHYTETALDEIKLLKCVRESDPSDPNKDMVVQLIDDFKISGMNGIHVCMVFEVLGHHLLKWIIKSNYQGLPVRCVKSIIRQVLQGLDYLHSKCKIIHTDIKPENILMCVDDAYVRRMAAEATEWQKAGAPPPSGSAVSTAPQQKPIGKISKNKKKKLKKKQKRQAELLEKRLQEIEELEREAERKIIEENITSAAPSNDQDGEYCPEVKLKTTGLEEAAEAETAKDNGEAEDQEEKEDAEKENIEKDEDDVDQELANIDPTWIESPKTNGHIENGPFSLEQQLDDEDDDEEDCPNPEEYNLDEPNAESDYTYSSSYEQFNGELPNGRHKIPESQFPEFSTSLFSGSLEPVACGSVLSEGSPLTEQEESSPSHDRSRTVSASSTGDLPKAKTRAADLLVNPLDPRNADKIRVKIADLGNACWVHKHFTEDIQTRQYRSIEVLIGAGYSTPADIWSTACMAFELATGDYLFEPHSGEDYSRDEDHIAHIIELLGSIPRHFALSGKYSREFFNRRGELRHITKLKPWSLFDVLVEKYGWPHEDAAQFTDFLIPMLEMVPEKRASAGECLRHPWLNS

EPHA7 (human) = EPHA7 (human) (UniProt Q15375)
MYO3A (human) = MYO3A (human) (UniProt Q8NEV4)
Chain of MYO3A (human) (Q8NEV4 whole entry, looked up): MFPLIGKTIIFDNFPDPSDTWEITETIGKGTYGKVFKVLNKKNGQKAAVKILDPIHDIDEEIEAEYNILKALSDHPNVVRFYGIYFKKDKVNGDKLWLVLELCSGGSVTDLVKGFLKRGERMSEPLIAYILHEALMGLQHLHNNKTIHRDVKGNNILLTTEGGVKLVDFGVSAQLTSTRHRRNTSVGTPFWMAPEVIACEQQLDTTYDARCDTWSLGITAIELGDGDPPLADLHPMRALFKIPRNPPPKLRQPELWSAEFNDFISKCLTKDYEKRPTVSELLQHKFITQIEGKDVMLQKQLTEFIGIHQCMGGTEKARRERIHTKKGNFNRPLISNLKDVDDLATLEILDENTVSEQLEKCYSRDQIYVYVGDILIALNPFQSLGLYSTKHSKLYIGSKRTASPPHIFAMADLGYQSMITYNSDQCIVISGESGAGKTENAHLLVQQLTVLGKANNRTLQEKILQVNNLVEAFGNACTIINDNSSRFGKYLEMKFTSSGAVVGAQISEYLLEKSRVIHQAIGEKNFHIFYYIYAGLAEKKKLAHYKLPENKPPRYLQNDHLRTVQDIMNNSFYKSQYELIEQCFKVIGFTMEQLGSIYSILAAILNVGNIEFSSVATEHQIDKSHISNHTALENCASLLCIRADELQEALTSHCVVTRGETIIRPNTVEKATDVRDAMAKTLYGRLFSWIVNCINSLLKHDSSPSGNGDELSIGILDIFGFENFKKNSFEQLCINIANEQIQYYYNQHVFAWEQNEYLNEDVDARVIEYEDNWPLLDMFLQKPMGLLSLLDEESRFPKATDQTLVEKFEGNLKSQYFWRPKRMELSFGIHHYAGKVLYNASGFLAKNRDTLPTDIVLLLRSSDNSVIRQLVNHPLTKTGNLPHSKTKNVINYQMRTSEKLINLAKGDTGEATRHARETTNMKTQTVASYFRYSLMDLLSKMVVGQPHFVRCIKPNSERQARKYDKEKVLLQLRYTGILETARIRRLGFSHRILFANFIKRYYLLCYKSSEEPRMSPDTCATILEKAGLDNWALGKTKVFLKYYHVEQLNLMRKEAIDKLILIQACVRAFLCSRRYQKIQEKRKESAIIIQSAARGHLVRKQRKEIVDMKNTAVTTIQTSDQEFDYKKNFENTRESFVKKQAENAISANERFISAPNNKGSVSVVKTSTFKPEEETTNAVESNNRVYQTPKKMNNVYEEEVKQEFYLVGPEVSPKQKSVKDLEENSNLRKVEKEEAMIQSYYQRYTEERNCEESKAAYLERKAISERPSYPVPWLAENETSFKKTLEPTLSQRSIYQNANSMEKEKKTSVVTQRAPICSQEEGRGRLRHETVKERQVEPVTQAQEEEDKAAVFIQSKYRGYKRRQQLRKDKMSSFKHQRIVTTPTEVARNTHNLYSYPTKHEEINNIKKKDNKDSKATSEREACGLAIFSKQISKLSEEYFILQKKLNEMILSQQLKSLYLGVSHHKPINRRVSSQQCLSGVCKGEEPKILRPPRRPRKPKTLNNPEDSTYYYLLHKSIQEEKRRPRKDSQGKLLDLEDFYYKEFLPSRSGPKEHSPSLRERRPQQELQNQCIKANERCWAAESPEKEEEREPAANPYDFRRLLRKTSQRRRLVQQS

RET (human) = RET (human) (UniProt P07949)
STK35 (human) = STK35 (human) (UniProt Q8TDR2)
TSSK1B (human) = TSSK1B (human) (UniProt Q9BXA7)
Chain of TSSK1B (human) (Q9BXA7 whole entry, looked up): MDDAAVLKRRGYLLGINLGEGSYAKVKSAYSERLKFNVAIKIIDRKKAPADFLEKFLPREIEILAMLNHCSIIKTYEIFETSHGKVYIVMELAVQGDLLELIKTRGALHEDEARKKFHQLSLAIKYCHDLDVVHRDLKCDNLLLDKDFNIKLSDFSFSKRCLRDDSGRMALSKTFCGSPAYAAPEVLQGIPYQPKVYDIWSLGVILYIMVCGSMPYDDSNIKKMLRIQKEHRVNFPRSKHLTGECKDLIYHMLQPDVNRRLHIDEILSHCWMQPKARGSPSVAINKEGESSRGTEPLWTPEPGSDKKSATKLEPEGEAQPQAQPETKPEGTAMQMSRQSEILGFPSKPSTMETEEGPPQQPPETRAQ

Chain of CaMK1 (human) (Q14012 whole entry, looked up): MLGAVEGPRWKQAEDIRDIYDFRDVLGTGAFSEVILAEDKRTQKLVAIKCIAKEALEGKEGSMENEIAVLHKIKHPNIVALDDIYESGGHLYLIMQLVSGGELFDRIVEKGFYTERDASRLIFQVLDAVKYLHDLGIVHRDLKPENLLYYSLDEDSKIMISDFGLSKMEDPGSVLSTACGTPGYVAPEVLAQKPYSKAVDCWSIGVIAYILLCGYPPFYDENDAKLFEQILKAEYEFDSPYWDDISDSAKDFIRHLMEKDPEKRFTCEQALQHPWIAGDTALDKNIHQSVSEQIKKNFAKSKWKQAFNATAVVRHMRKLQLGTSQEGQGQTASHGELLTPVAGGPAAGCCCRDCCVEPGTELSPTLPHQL

Q: With CNC(=O)Nc1ccc(-c2nc(N3CC4CCC(C3)O4)c3cnn(C4CCC5(CC4)OCCO5)c3n2)cc1 as the compound, how does the kinase still bound, per cent of control (CDK19 (human)) read?
A: 100%

Q: And the kinase still bound, per cent of control (CaMK1 (human))?
A: 93%

Q: And the kinase still bound, per cent of control (PIK3C2B (human))?
A: 25%

Q: And the kinase still bound, per cent of control (LTK (human))?
A: 68%

Q: What about the kinase still bound, per cent of control (PLK3 (human)) of the same compound?
A: 100%

Q: What about the kinase still bound, per cent of control (SYK (human)) of the same compound?
A: 100%

Q: What about the kinase still bound, per cent of control (RIPK1 (human)) of the same compound?
A: 83%

Q: And the kinase still bound, per cent of control (HIPK1 (human))?
A: 100%

Q: And the kinase still bound, per cent of control (CDK5 (human))?
A: 88%

Q: What about the kinase still bound, per cent of control (TBK1 (human)) of the same compound?
A: 82%

Q: What about the kinase still bound, per cent of control (CLK4 (human)) of the same compound?
A: 88%

Q: And the kinase still bound, per cent of control (CRK2 (P.falciparum))?
A: 100%

Q: What about the kinase still bound, per cent of control (CDK13 (human)) of the same compound?
A: 84%

Q: And the kinase still bound, per cent of control (PAK2 (human))?
A: 99%

Q: What about the kinase still bound, per cent of control (STK24 (human)) of the same compound?
A: 96%

Q: And the kinase still bound, per cent of control (HIPK2 (human))?
A: 100%

Q: And the kinase still bound, per cent of control (PKMYT1 (human))?
A: 75%

Q: What about the kinase still bound, per cent of control (FLT4 (human)) of the same compound?
A: 88%

Q: And the kinase still bound, per cent of control (RPS6KA1 KD2 (human))?
A: 91%

Q: What about the kinase still bound, per cent of control (TGFBR2 (human)) of the same compound?
A: 100%

Q: What about the kinase still bound, per cent of control (GRK4 (human)) of the same compound?
A: 100%

Q: And the kinase still bound, per cent of control (CHEK1 (human))?
A: 100%

Q: What about the kinase still bound, per cent of control (MUSK (human)) of the same compound?
A: 92%

Q: What about the kinase still bound, per cent of control (AURKA (human)) of the same compound?
A: 100%

Q: What about the kinase still bound, per cent of control (CDK17 (human)) of the same compound?
A: 100%

Q: What about the kinase still bound, per cent of control (HCK (human)) of the same compound?
A: 100%

Q: What about the kinase still bound, per cent of control (SIK3 (human)) of the same compound?
A: 35%

Q: What about the kinase still bound, per cent of control (EPHA1 (human)) of the same compound?
A: 81%

Q: And the kinase still bound, per cent of control (FLT1 (human))?
A: 92%

Q: And the kinase still bound, per cent of control (MYLK (human))?
A: 100%

Q: And the kinase still bound, per cent of control [1]?
A: 89%

Q: What about the kinase still bound, per cent of control (MAP3K11 (human)) of the same compound?
A: 100%

Q: And the kinase still bound, per cent of control (CDKL3 (human))?
A: 95%

Q: And the kinase still bound, per cent of control (MAP3K15 (human))?
A: 100%

Q: And the kinase still bound, per cent of control (SRPK2 (human))?
A: 90%

Q: What about the kinase still bound, per cent of control (EPHA7 (human)) of the same compound?
A: 87%

Q: What about the kinase still bound, per cent of control (MYO3A (human)) of the same compound?
A: 52%

Q: And the kinase still bound, per cent of control (RET (human))?
A: 91%

Q: And the kinase still bound, per cent of control (STK35 (human))?
A: 95%

Q: What about the kinase still bound, per cent of control (TSSK1B (human)) of the same compound?
A: 100%

Q: What does the source list for CC1=C(C(=O)Nc2cc3cn[nH]c3cc2F)C(c2ccc(C(F)(F)F)cc2)CC(=O)N1 (stereo not given)?
A: kinase still bound, per cent of control (CDK19 (human)): 80%; kinase still bound, per cent of control (CaMK1 (human)): 93%; kinase still bound, per cent of control (PIK3C2B (human)): 100%; kinase still bound, per cent of control (LTK (human)): 100%; kinase still bound, per cent of control (PLK3 (human)): 84%; kinase still bound, per cent of control (SYK (human)): 100%; kinase still bound, per cent of control (RIPK1 (human)): 84%; kinase still bound, per cent of control (HIPK1 (human)): 75%; kinase still bound, per cent of control (CDK5 (human)): 80%; kinase still bound, per cent of control (TBK1 (human)): 82%; kinase still bound, per cent of control (CLK4 (human)): 100%; kinase still bound, per cent of control (CRK2 (P.falciparum)): 100%; kinase still bound, per cent of control (CDK13 (human)): 24%; kinase still bound, per cent of control (PAK2 (human)): 88%; kinase still bound, per cent of control (STK24 (human)): 52%; kinase still bound, per cent of control (HIPK2 (human)): 87%; kinase still bound, per cent of control (PKMYT1 (human)): 100%; kinase still bound, per cent of control (FLT4 (human)): 94%; kinase still bound, per cent of control (RPS6KA1 KD2 (human)): 83%; kinase still bound, per cent of control (TGFBR2 (human)): 85%; kinase still bound, per cent of control (GRK4 (human)): 99%; kinase still bound, per cent of control (CHEK1 (human)): 100%; kinase still bound, per cent of control (MUSK (human)): 95%; kinase still bound, per cent of control (AURKA (human)): 46%; kinase still bound, per cent of control (CDK17 (human)): 91%; kinase still bound, per cent of control (HCK (human)): 41%; kinase still bound, per cent of control (SIK3 (human)): 94%; kinase still bound, per cent of control (EPHA1 (human)): 77%; kinase still bound, per cent of control (FLT1 (human)): 77%; kinase still bound, per cent of control (MYLK (human)): 75%; kinase still bound, per cent of control [1]: 58%; kinase still bound, per cent of control (MAP3K11 (human)): 100%; kinase still bound, per cent of control (CDKL3 (human)): 78%; kinase still bound, per cent of control (MAP3K15 (human)): 77%; kinase still bound, per cent of control (SRPK2 (human)): 100%; kinase still bound, per cent of control (EPHA7 (human)): 80%; kinase still bound, per cent of control (MYO3A (human)): 85%; kinase still bound, per cent of control (RET (human)): 20%; kinase still bound, per cent of control (STK35 (human)): 96%; kinase still bound, per cent of control (TSSK1B (human)): 98%

Q: C=CC(=O)Nc1ccc(C(=O)c2sc(Nc3ccc(N4CCN(C)CC4)cc3OC)nc2N)cc1 was tested. Which kinase still bound, per cent of control (CDK19 (human)) did it give?
A: 100%

Q: What about the kinase still bound, per cent of control (CaMK1 (human)) of the same compound?
A: 8.2%

Q: And the kinase still bound, per cent of control (PIK3C2B (human))?
A: 100%

Q: What about the kinase still bound, per cent of control (LTK (human)) of the same compound?
A: 5.6%

Q: What about the kinase still bound, per cent of control (PLK3 (human)) of the same compound?
A: 7.8%

Q: And the kinase still bound, per cent of control (SYK (human))?
A: 100%

Q: And the kinase still bound, per cent of control (RIPK1 (human))?
A: 100%

Q: What about the kinase still bound, per cent of control (HIPK1 (human)) of the same compound?
A: 15%

Q: What about the kinase still bound, per cent of control (CDK5 (human)) of the same compound?
A: 86%

Q: What about the kinase still bound, per cent of control (TBK1 (human)) of the same compound?
A: 100%

Q: And the kinase still bound, per cent of control (CLK4 (human))?
A: 1.6%

Q: And the kinase still bound, per cent of control (CRK2 (P.falciparum))?
A: 92%

Q: What about the kinase still bound, per cent of control (CDK13 (human)) of the same compound?
A: 100%

Q: And the kinase still bound, per cent of control (PAK2 (human))?
A: 68%

Q: What about the kinase still bound, per cent of control (STK24 (human)) of the same compound?
A: 71%

Q: What about the kinase still bound, per cent of control (HIPK2 (human)) of the same compound?
A: 40%

Q: What about the kinase still bound, per cent of control (PKMYT1 (human)) of the same compound?
A: 96%

Q: And the kinase still bound, per cent of control (FLT4 (human))?
A: 100%

Q: What about the kinase still bound, per cent of control (RPS6KA1 KD2 (human)) of the same compound?
A: 0.3%

Q: What about the kinase still bound, per cent of control (TGFBR2 (human)) of the same compound?
A: 100%

Q: What about the kinase still bound, per cent of control (GRK4 (human)) of the same compound?
A: 52%

Q: What about the kinase still bound, per cent of control (CHEK1 (human)) of the same compound?
A: 73%

Q: What about the kinase still bound, per cent of control (MUSK (human)) of the same compound?
A: 100%

Q: And the kinase still bound, per cent of control (AURKA (human))?
A: 93%

Q: What about the kinase still bound, per cent of control (CDK17 (human)) of the same compound?
A: 78%

Q: What about the kinase still bound, per cent of control (HCK (human)) of the same compound?
A: 100%

Q: What about the kinase still bound, per cent of control (SIK3 (human)) of the same compound?
A: 95%

Q: And the kinase still bound, per cent of control (EPHA1 (human))?
A: 100%

Q: What about the kinase still bound, per cent of control (FLT1 (human)) of the same compound?
A: 97%

Q: What about the kinase still bound, per cent of control (MYLK (human)) of the same compound?
A: 8.6%

Q: And the kinase still bound, per cent of control [1]?
A: 63%

Q: And the kinase still bound, per cent of control (MAP3K11 (human))?
A: 100%

Q: And the kinase still bound, per cent of control (CDKL3 (human))?
A: 100%

Q: And the kinase still bound, per cent of control (MAP3K15 (human))?
A: 9.2%

Q: What about the kinase still bound, per cent of control (SRPK2 (human)) of the same compound?
A: 95%

Q: What about the kinase still bound, per cent of control (EPHA7 (human)) of the same compound?
A: 95%

Q: What about the kinase still bound, per cent of control (MYO3A (human)) of the same compound?
A: 35%

Q: And the kinase still bound, per cent of control (RET (human))?
A: 100%

Q: What about the kinase still bound, per cent of control (STK35 (human)) of the same compound?
A: 94%

Q: What about the kinase still bound, per cent of control (TSSK1B (human)) of the same compound?
A: 44%
